Reference: ChEMBL document CHEMBL1131332, “(-)-6-Chloro-2-[(1-furo[2, 3-c]pyridin-5-ylethyl)thio]-4-pyrimidinamine, PNU-142721, a new broad spectrum HIV-1 non-nucleoside reverse transcriptase inhibitor” (J Med Chem, 1998)
pIC50: −log10 of the molar value.

Key:
[1] = tested on: Human immunodeficiency virus 1; assay: In vitro antiviral activity against NNRTI-resistant L-697661R-IIIB (Y181C) HIV-1 variant; type: functional, organism-based; conditions: Human immunodeficiency virus 1, IIIB
[2] = tested on: Human immunodeficiency virus 1; assay: Inhibition of p24 production in NNRTI-resistant DLVR-MF (P236L) HIV-1 variant at concentration 0.01 um; type: functional
[3] = tested on: Human immunodeficiency virus 1; assay: In vitro antiviral activity against NNRTI-resistant DLVR-MF (P236L) HIV-1 variant; type: functional, organism-based; conditions: Human immunodeficiency virus 1, IIIB
[4] = target: Human immunodeficiency virus type 1 reverse transcriptase (Human immunodeficiency virus 1, UniProt Q72547, Y181C); assay: Inhibitory activity against Y181C mutant HIV-1 reverse transcriptase
[5] = target: Human immunodeficiency virus type 1 reverse transcriptase (Human immunodeficiency virus 1, UniProt Q72547, P236L); assay: Inhibitory activity against P236L mutant HIV-1 reverse transcriptase
[6] = tested on: Human immunodeficiency virus 1; assay: Inhibition of p24 production in NNRTI-resistant L-697661R-IIIB (Y181C) HIV-1 variant at concentration 3 um; type: functional
[7] = target: Human immunodeficiency virus type 1 reverse transcriptase (Human immunodeficiency virus 1, UniProt Q72547); assay: Inhibitory activity against wild type HIV-1 reverse transcriptase (WT-RT)
[8] = Apparent terminal disposition half-life (t1/2 ) was evaluated in Spargue-Dawley rat when given intravenously at dose 15 mg/kg; type: ADME, organism-based; set-up: dose 15 mg/kg, route intravenous; conditions: Sprague-Dawley, in vivo, iv
[9] = target: Human immunodeficiency virus type 1 reverse transcriptase (Human immunodeficiency virus 1, UniProt Q72547, L100I); assay: Inhibitory activity against L100I mutant HIV-1 reverse transcriptase
[10] = Apparent terminal disposition half-life (t1/2) was evaluated in Spargue-Dawley rat when given peroral at dose 80 mg/kg; type: ADME, organism-based; set-up: dose 80 mg/kg, route oral; conditions: Sprague-Dawley, in vivo, po
[11] = Pharmacokinetic parameter (CL/F) was evaluated in Spargue-Dawley rat when given peroral at dose 80 mg/kg; type: ADME, organism-based; set-up: dose 80 mg/kg, route oral; conditions: Sprague-Dawley, in vivo, po
[12] = tested on: Human immunodeficiency virus 1; assay: In vitro antiviral activity against NNRTI-resistant DLVR-IIIB (L100I) HIV-1 variant; type: functional, organism-based; conditions: Human immunodeficiency virus 1, IIIB
[13] = Pharmacokinetic parameter (Cmax ) was evaluated in Spargue-Dawley rat when given intravenously at dose 15 mg/kg; type: ADME, organism-based; set-up: dose 15 mg/kg, route intravenous; conditions: Sprague-Dawley, in vivo, iv
[14] = Pharmacokinetic parameter (tmax) was evaluated in Spargue-Dawley rat when given peroral at dose 80 mg/kg; type: ADME, organism-based; set-up: dose 80 mg/kg, route oral; conditions: Sprague-Dawley, in vivo, po
[15] = Pharmacokinetic parameter (Vss ) was evaluated in Spargue-Dawley rat when given intravenously at dose 15 mg/kg; type: ADME, organism-based; set-up: dose 15 mg/kg, route intravenous; conditions: Sprague-Dawley, in vivo, iv, read-out: Vss
[16] = tested on: Human immunodeficiency virus 1; assay: In vitro antiviral activity against NNRTI-resistant IIIB (WT) HIV-1 variant; type: functional, organism-based; conditions: Human immunodeficiency virus 1, IIIB
[17] = target: Human immunodeficiency virus type 1 reverse transcriptase (Human immunodeficiency virus 1, UniProt Q72547, E233V); assay: Inhibitory activity against E233V mutant HIV-1 reverse transcriptase
[18] = Pharmacokinetic parameter (Absolute oral bioavailability) was evaluated in Spargue-Dawley rat when given peroral at dose 80 mg/kg; type: ADME, organism-based; conditions: Sprague-Dawley, in vivo
[19] = Pharmacokinetic parameter (CL/F ) was evaluated in Spargue-Dawley rat when given peroral at dose 30 mg/kg; type: ADME, organism-based; set-up: dose 30 mg/kg, route oral; conditions: Sprague-Dawley, in vivo, po
[20] = Pharmacokinetic parameter (tmax ) was evaluated in Spargue-Dawley rat when given peroral at dose 30 mg/kg; type: ADME, organism-based; set-up: dose 30 mg/kg, route oral; conditions: Sprague-Dawley, in vivo, po
[21] = Pharmacokinetic parameter (Cmax ) was evaluated in Spargue-Dawley rat when given peroral at dose 80 mg/kg; type: ADME, organism-based; set-up: dose 80 mg/kg, route oral; conditions: Sprague-Dawley, in vivo, po
[22] = Pharmacokinetic parameter (Absolute oral bioavailability) was evaluated in Spargue-Dawley rat when given peroral at dose 30 mg/kg; type: ADME, organism-based; conditions: Sprague-Dawley, in vivo
[23] = Apparent terminal disposition half-life (t1/2 ) was evaluated in Spargue-Dawley rat when given peroral at dose 30 mg/kg; type: ADME, organism-based; set-up: dose 30 mg/kg, route oral; conditions: Sprague-Dawley, in vivo, po
[24] = Pharmacokinetic parameter (tmax ) was evaluated in Spargue-Dawley rat when given intravenously at dose 15 mg/kg; type: ADME, organism-based; set-up: dose 15 mg/kg, route intravenous; conditions: Sprague-Dawley, in vivo, iv
[25] = Pharmacokinetic parameter (Cmax ) was evaluated in Spargue-Dawley rat when given peroral at dose 30 mg/kg; type: ADME, organism-based; set-up: dose 30 mg/kg, route oral; conditions: Sprague-Dawley, in vivo, po
[26] = tested on: Human immunodeficiency virus 1; assay: In vitro antiviral activity against NNRTI-resistant R88703R-IIIB (Y181C) HIV-1 variant; type: functional, organism-based; conditions: Human immunodeficiency virus 1, IIIB
[27] = target: Human immunodeficiency virus type 1 reverse transcriptase (Human immunodeficiency virus 1, UniProt Q72547, Y188H); assay: Inhibitory activity against Y188H mutant HIV-1 reverse transcriptase

Compound	pIC50 [1]	pIC50 [3]	pIC50 [4]	pIC50 [5]	pIC50 [7]	pIC50 [9]	pIC50 [12]	pIC50 [16]	pIC50 [17]	pIC50 [26]	pIC50 [27]	further results
C[C@@H](Sc1nc(N)cc(Cl)n1)c1cc2ccoc2cn1	< 5.52	< 8.00	< 4.30	7.60	7.07							Inhibition [2]: 0%; Inhibition [6]: 0%
C[C@H](Sc1nc(N)cc(Cl)n1)c1cc2ccoc2cn1	5.96	8.10	6.75	7.66	7.70	7.41	7.15	9.00	7.77	6.77	7.11	half-life [8]: 0.7 h; half-life [10]: 1.5 h; CL/F [11]: 0.426 L/h/kg; Cmax [13]: 123 µM; Tmax [14]: 3.8 h; Vd [15]: 0.55 L/kg; bioavailability [18]: 94%; CL/F [19]: 0.426 L/h/kg; Tmax [20]: 1.4 h; Cmax [21]: 103 µM; bioavailability [22]: 94%; half-life [23]: 0.78 h; Tmax [24]: 1.98 min; Cmax [25]: 52 µM
CCc1cc(NCc2nc3c(Cl)ccc(Cl)c3o2)c(O)nc1C [L-697661]	< 5.00	6.37					5.40	6.96		5.11		
CC(=O)c1ccccc1NC(C(N)=O)c1c(Cl)cccc1Cl (configuration not stated)	< 5.00	7.10					5.19	6.82		< 5.00		
CC(C)Nc1cccnc1N1CCN(C(=O)c2cc3cc(NS(C)(=O)=O)ccc3[nH]2)CC1 [DELAVIRDINE]		< 5.00					< 5.00	7.30		6.00		
CC(Sc1nc(N)cc(Cl)n1)c1cc2ccoc2cn1 (configuration not stated)	5.62	8.00	6.44	7.66	7.62	7.36	7.22	8.70	7.36	6.77	7.26	
